Patent US8673910B2, “Proteasome inhibitors for selectively inducing apoptosis in cancer cells” (H. Lee Moffitt Cancer Center and Research Institute, priority 2008, dated 2014)
Values joined by “and” are separate entries in the source; they are usually repeats but may differ in a detail not shown here. Identical values can stand only once.

Assays:
[1] = target: T1, CT-L activity of the proteasome in MCF-7 human breast cancer cells (Homo sapiens, UniProt P20618+P28074); assay: Proteolytic activity in cell lysates of treated intact MCF-7 cells; format: cell-based; conditions: intact cells treated 16 h, CT-L measured in cell lysates; two determinations where two values
T1 construct: endogenous in cells; host or cells: MCF-7
Procedure: Human MCF-7 breast cancer cells were cultured in DMEM medium containing 10% fetal calf serum (FCS) and 100 units/ml of penicillin and 100 μg/ml of streptomycin. Cells were maintained at 37° C. in a humidified incubator in an atmosphere of 5% CO2. Cells were treated with different concentrations of PI-083, YG1-080, YG1-075, HL2-090-2, HL2-090-4, HL2-090-6, and HL2-090-9 or vehicle control (DMSO) for 16 h.
Intact cells were treated with compounds and lysates prepared as described above. Cell lysates (5 μg) was incubated with 20 μM Suc-Leu-Leu-Val-Tyr-AMC for the CT-L activity for 1 h at 37° C. in 100 μl of assay buffer (50 mM Tris-HCl, pH 7.6). After incubation, production of hydrolyzed 7-amido-4-methyl-coumarin (AMC) groups was measured using a WALLAC Victor^2 1420 Multilabel Counter with an excitation filter of 355 nm and an emission filter of 460 nm (Perkin Elmer Life Sciences, Turku, Finland).

[2] = target: T2, chymotrypsin-like (CT-L) activity of purified 20S rabbit proteasome (Oryctolagus cuniculus, UniProt G1T4Q9); assay: Proteolytic activity of purified 20S proteasome, fluorogenic substrate Suc-Leu-Leu-Val-Tyr-AMC; format: biochemical; conditions: purified rabbit 20S proteasome
T2 sequence (G1T4Q9 1-263): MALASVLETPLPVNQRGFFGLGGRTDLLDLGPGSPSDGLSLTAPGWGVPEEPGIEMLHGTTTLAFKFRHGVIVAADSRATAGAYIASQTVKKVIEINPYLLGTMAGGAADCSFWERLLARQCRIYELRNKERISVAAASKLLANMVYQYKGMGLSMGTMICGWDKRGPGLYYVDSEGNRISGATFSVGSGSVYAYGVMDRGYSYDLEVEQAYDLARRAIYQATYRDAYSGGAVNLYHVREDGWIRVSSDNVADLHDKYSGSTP
Procedure: The inhibitory activity of the compounds was calculated based on vehicle control). This technique monitors the hydrolytic release of a coumarin species from a synthetic peptide substrate.
The assay was conducted by using a fluorogenic peptide as substrate to test synthesized compounds for inhibitory activity against the chymotrypsin-like activity of the purified rabbit 20S proteasome. Briefly, 70 ng of purified 20S proteasome was incubated with 20 μM Suc-Leu-Leu-Val-Tyr-AMC for 1 hour at 37° C. in 100 μl of assay buffer (50 mM Tris-HCl, pH 7.6) with or without inhibitors. After incubation, production of hydrolyzed 7-amido-4-methyl-coumarin (AMC) was measured using a WALLAC Victor2 1420 Multilabel Counter with an excitation filter of 355 nm and an emission filter of 460 nm (Perkin Elmer Life Sciences, Turku, Finland). The inhibitory activity of the compounds was calculated based on vehicle control.

[3] = tested on: MCF-7 breast cancer cells; assay: MTT metabolism assay; format: cell-based, human; conditions: Homo sapiens, MCF7, 72 h, MCF-7, 72 h (Table 6); read-out: IC50 for cell viability measured by MTT assay in MCF-7 human breast cancer cells
Procedure: Cells were plated in 96-well plates in 100 μl medium and allowed to attach overnight. […] Media was aspirated after 24 or 72 hours and replaced with 100 μl complete media containing 1 mg/ml MTT and incubated for three hours at 37° C. in 5% CO2 humidified incubator. Media was then aspirated and DMSO was added. Cells were incubated for 10 min at room temperature while shaking, and the absorbance was determined at 540 nm using a μQuant spectrophotometric plate reader (Bio-TEK, Winooski, Vt.).
Cells were plated in 96-well plates in 100 μl medium and allowed to attach overnight. Cells were then incubated for 72 h with varying concentrations of PI-083, YG1-080, YG1-075, HL2-090-2, HL2-090-4, HL2-090-6, and HL2-090-9 or vehicle control (DMSO). Media was aspirated and replaced with 100 μl complete media containing 1 mg/ml MTT and incubated for three hours at 37° C. in 5% CO2 humidified incubator. Media was then aspirated and DMSO was added. Cells were incubated for 10 min at room temperature while shaking, and the absorbance was determined at 540 nm using a μQuant spectrophotometric plate reader (Bio-TEK, Winooski, Vt.).

NS(=O)(=O)c1ccc(NC2=C(Cl)C(=O)c3ccccc3C2=O)cc1 [Compound 2t, 4-(3-chloro-1,4-dioxo-1,4-dihydronaphthalen-2-ylamino)benzenesulfonamide]
IC50 [1]: 5.1 µM and 4.7 µM
IC50 ([2]; PI-083 derivatives (Table 7, naphthoquinone library), read-out: IC50 (μM) Chymotrypsin-like activity): 1.1 µM
proteasome (chymotrypsin-like) inhibitory activity, in words [2]: equally as active as PI-083
melting point: > 300 °C
IC50 [3]: 2.41 ± 0.19 µM
